Read-outs that look alike come from different tables or passages of the source.
Assays:
[1] = system: Fatty diabetic Zucker rats; experiment: Fatty diabetic Zucker rats, 4-week diets, fasting glucose; assay type: in vivo, rat; conditions: diet for 4 weeks
Protocol: Fatty diabetic Zucker rats were separated into three groups to receive three diets for 4 weeks: a) 1% Mg in diet (5 times higher than control diet); b) a combination including 2 g/L of vitamin C in drinking water, 2.5% of KM in diet, 400 mg/kg of α-LA; c) Comp1 that includes 1% of Mg in diet, 2 g/L of vitamin C in drinking water, 2.5% of KM in diet, 400 mg/kg of α-LA.
No change in the level of fasting glucose level vs baseline was observed by the administration of Mg. 17% reduction of glucose vs baseline was observed by the combination of Vitamin C, KM and α-LA. 28% reduction of glucose vs baseline was observed by Comp1 (the combination of Vitamin C, KM and α-LA with Mg salt)

humans [2] = conditions: seven clinical trials; cited from earlier work
humans [3] = conditions: exposure of humans; cited from earlier work
[4] = system: timed-pregnant Sprague-Dawley rats; conditions: rat, in vivo; cited from earlier work
DM patients = conditions: cited from earlier work
humans [5] = conditions: cited from earlier work
T2DM patients [6] = conditions: 200 μg twice daily, three weeks, cited from earlier work
T2DM patients [7] = conditions: 200 μg twice daily, 12 weeks, versus placebo; cited from earlier work

Question: With `[Cl-].[Cl-].[Mg+2]` [Mg, Magnesium Chloride] as the molecule, how does the “reduction of fasting glucose level vs baseline” value [1] read?
Answer: No change

Question: What about the “effect on glucose levels” value (humans [2]) of the same molecule?
Answer: failed to show reduced glucose levels

Question: With `OCCNCCO` [diethanolamine] as the molecule, how does the individuals developing asthma (humans [3]) read?
Answer: 0.6%

Question: Which “reduction of body weight” value [4] does the source give for `CCN(CC)CCO` [diethylethanolamine] here?
Answer: 9.5%

Question: What about the “reduction of weight gain” value [4] of the same molecule?
Answer: 48%

Question: Which results are given for `O=C(O)CCCCC1CCSS1` (stereo not drawn) [α-LA, Alpha-lipoic acid]?
Answer: decrease of levels of peroxides (DM patients): 34%; reduction of fasting glucose level (humans [5]; lean T2DM patients): ~15%; reduction of fasting glucose level (humans [5]; patients with diabetic neuropathy): 18%; effect on glucose levels (humans [5]; two clinical trials): no effect

Question: For Chromium picolinate [CrPic], which “reduction in glucose versus baseline” value (T2DM patients [6]; T2DM patients) is on record?
Answer: −21%

Question: And the “change in cholesterol versus baseline” value (T2DM patients [6])?
Answer: −9.4%

Question: What about the “change in triglycerides versus baseline” value (T2DM patients [6]) of the same molecule?
Answer: −10.5%

Question: What about the “glycated hemoglobin (HbA1C) after treatment” value (T2DM patients [6]; from 8.2% at baseline) of the same molecule?
Answer: 7.6%

Question: What about the “improvement in fasting glucose” value (T2DM patients [7]) of the same molecule?
Answer: 0.44 mM

Question: And the “improvement in post-prandial serum glucose” value (T2DM patients [7])?
Answer: 1.97 mM
